According to ChEMBL document CHEMBL4680137, “Synthesis and biological evaluation of some novel 1,2,3-triazole hybrids of myrrhanone B isolated from Commiphora mukul gum resin: Identification of potent antiproliferative leads active against prostate cancer cells (PC-3)” (Eur J Med Chem, 2020):

Assays:
A549 = assay: Antiproliferative activity against human A549 cells assessed as reduction in cell viability after 48 hrs by MTT assay; type: functional, cell-based; conditions: A549, 48 h
DU-145 = assay: Antiproliferative activity against human DU-145 cells assessed as reduction in cell viability after 48 hrs by MTT assay; type: functional, cell-based; conditions: DU-145, 48 h
[1] = Inhibition of Saccharomyces cerevisiae alpha-glucosidase using p-nitophenyl alpha […]D-glucoside incubated for 45 mins
U-87 MG = assay: Antiproliferative activity against human U87 cells assessed as reduction in cell viability after 48 hrs by MTT assay; type: functional, cell-based, U-87MG ATCC
L132 = assay: Cytotoxicity against human L132 cells assessed as reduction in cell viability after 48 hrs by MTT assay; type: cell-based; conditions: L132, 48 h
MDA-MB-231 = assay: Antiproliferative activity against human MDA-MB-231 cells assessed as reduction in cell viability after 48 hrs by MTT assay; type: functional, cell-based; conditions: MDA-MB-231, 48 h
SiHa = assay: Antiproliferative activity against human SiHa cells assessed as reduction in cell viability after 48 hrs by MTT assay; type: functional, cell-based
PC-3 = assay: Antiproliferative activity against human PC3 cells assessed as reduction in cell viability after 48 hrs by MTT assay; type: functional, cell-based; conditions: PC-3, 48 h
HT-29 = assay: Antiproliferative activity against human HT-29 cells assessed as reduction in cell viability after 48 hrs by MTT assay; type: functional, cell-based; conditions: HT-29, 48 h
[2] = Inhibition of LPS-induced TNF-alpha expression in human U-937 cells preincubated for 1 hr followed by LPS addition and measured after 24 hrs by ELISA; type: functional, cell-based
[3] = Inhibition of LPS-induced IL-1beta expression in human U-937 cells preincubated for 1 hr followed by LPS addition and measured after 24 hrs by ELISA; type: functional, cell-based

`COc1cccc(-n2cc(COC(=O)/C(C)=C/CC/C(C)=C/CC/C(C)=C/CC[C@@H]3[C@@]4(C)CCC(=O)C(C)(C)[C@H]4CC[C@@]3(C)O)nn2)c1` showed an IC50 (A549) of over 150 µM, an IC50 (DU-145) of over 150 µM and an IC50 [1] of 17.6 µM.

Work on `C/C(=C\CC/C(C)=C/CC[C@@H]1[C@@]2(C)CCC(=O)C(C)(C)[C@H]2CC[C@@]1(C)O)CC/C=C(\C)C(=O)OCc1cn(-c2ccc(Br)cc2)nn1` yielded an IC50 (A549) of over 150 µM, an IC50 (DU-145) of over 150 µM and an IC50 (U-87 MG) of over 150 µM. The IC50 (L132) was over 150 µM and the IC50 [1] was 11.3 µM.

For `C/C(=C\CC/C(C)=C/CC[C@@H]1[C@@]2(C)CCC(=O)C(C)(C)[C@H]2CC[C@@]1(C)O)CC/C=C(\C)C(=O)OCc1cn(-c2ccc(C(C)(C)C)cc2)nn1`, the IC50 (A549) was over 150 µM, the IC50 (DU-145) was over 150 µM and the IC50 (U-87 MG) was over 150 µM. For the same compound, the IC50 (L132) was 65.8 µM and the IC50 [1] was 12.6 µM.

Compound `C/C(=C\CC/C(C)=C/CC[C@@H]1[C@@]2(C)CCC(=O)C(C)(C)[C@H]2CC[C@@]1(C)O)CC/C=C(\C)C(=O)OCc1cn(-c2cccc(F)c2)nn1` has an IC50 (A549) of 124 µM, an IC50 (DU-145) of over 150 µM and an IC50 (MDA-MB-231) of 144 µM. For the same compound, the IC50 (SiHa) was over 150 µM, the IC50 (U-87 MG) was over 150 µM and the IC50 [1] was 4.12 µM.

In the case of `C#CCOC(=O)/C(C)=C/CC/C(C)=C/CC/C(C)=C/CC[C@@H]1[C@@]2(C)CCC(=O)C(C)(C)[C@H]2CC[C@@]1(C)O`, the IC50 (A549) is reported as 45.1 µM, the IC50 (DU-145) is reported as 46.1 µM and the IC50 (MDA-MB-231) is reported as 114 µM. For the same compound, the IC50 (U-87 MG) was over 150 µM, the IC50 (PC-3) was 18.9 µM and the IC50 (HT-29) was 27.4 µM.

With `C/C(=C\CC/C(C)=C/CC[C@@H]1[C@@]2(C)CCC(=O)C(C)(C)[C@H]2CC[C@@]1(C)O)CC/C=C(\C)C(=O)OCc1cn(-c2ccccc2C(F)(F)F)nn1` the IC50 (A549) was over 150 µM, the IC50 (DU-145) was over 150 µM and the IC50 (MDA-MB-231) was over 150 µM. The IC50 (L132) was over 150 µM and the IC50 [1] was 14.5 µM.

Work on `C/C(=C\CC/C(C)=C/CC[C@@H]1[C@@]2(C)CCC(=O)C(C)(C)[C@H]2CC[C@@]1(C)O)CC/C=C(\C)C(=O)OCc1cn(-c2cccc(C(F)(F)F)c2)nn1` yielded an IC50 (A549) of over 150 µM, an IC50 (DU-145) of over 150 µM and an IC50 (MDA-MB-231) of over 150 µM. For the same compound, the IC50 [1] was 13.4 µM.

`COc1cccc2c1C(=O)c1c(O)c3c(c(O)c1C2=O)C[C@@](O)(C(=O)CO)C[C@@H]3O[C@H]1C[C@H](N)[C@H](O)[C@H](C)O1` [DOXORUBICIN] showed an IC50 (A549) of 2.58 µM, an IC50 (DU-145) of 3.11 µM and an IC50 (MDA-MB-231) of 0.034 µM. It also gave an IC50 (SiHa) of 0.311 µM, an IC50 (U-87 MG) of 5.94 µM and an IC50 (PC-3) of 5.05 µM. The IC50 (HT-29) was 0.082 µM and the IC50 (L132) was 0.01 µM.

Work on `C/C(=C\CC/C(C)=C/CC[C@@H]1[C@@]2(C)CCC(=O)C(C)(C)[C@H]2CC[C@@]1(C)O)CC/C=C(\C)C(=O)OCc1cn(-c2ccccc2F)nn1` yielded an IC50 (A549) of over 150 µM, an IC50 (DU-145) of over 150 µM and an IC50 (MDA-MB-231) of over 150 µM. For the same compound, the IC50 (L132) was over 150 µM.

`C/C(=C\CC/C(C)=C/CC[C@@H]1[C@@]2(C)CCC(=O)C(C)(C)[C@H]2CC[C@@]1(C)O)CC/C=C(\C)C(=O)OCc1cn(-c2cccc(Cl)c2)nn1` gave an IC50 (A549) of 147 µM, an IC50 (DU-145) of 103 µM and an IC50 (MDA-MB-231) of 103 µM. It also gave an IC50 (SiHa) of 111 µM, an IC50 (U-87 MG) of 91.8 µM and an IC50 (L132) of 94.2 µM. The IC50 [1] was 7.91 µM.

`COc1ccc(-n2cc(COC(=O)/C(C)=C/CC/C(C)=C/CC/C(C)=C/CC[C@@H]3[C@@]4(C)CCC(=O)C(C)(C)[C@H]4CC[C@@]3(C)O)nn2)cc1` showed an IC50 (A549) of over 150 µM, an IC50 (DU-145) of 135 µM and an IC50 (MDA-MB-231) of over 150 µM. The IC50 (L132) was over 150 µM.

For `C/C(=C\CC/C(C)=C/CC[C@@H]1[C@@]2(C)CCC(=O)C(C)(C)[C@H]2CC[C@@]1(C)O)CC/C=C(\C)C(=O)OCc1cn(-c2ccccc2)nn1`, the IC50 (A549) was over 150 µM, the IC50 (DU-145) was 95.5 µM and the IC50 (MDA-MB-231) was over 150 µM. For the same compound, the IC50 (SiHa) was 149 µM, the IC50 (L132) was over 150 µM and the IC50 [2] was 9.3 µM. For the same compound, the IC50 [3] was 9.87 µM and the IC50 [1] was 43.5 µM.

With `C[C@H]1O[C@H](O[C@H]2[C@H](O)[C@@H](O)[C@@H](O[C@H]3[C@H](O)[C@@H](O)C(O)O[C@@H]3CO)O[C@@H]2CO)[C@H](O)[C@@H](O)[C@@H]1N[C@H]1C=C(CO)[C@@H](O)[C@H](O)[C@H]1O` (stereo partly specified) [ACARBOSE] the IC50 [1] was 2120 µM.

Work on `C/C(=C\CC/C(C)=C/CC[C@@H]1[C@@]2(C)CCC(=O)C(C)(C)[C@H]2CC[C@@]1(C)O)CC/C=C(\C)C(=O)OCc1cn([C@@H]2C[C@@H](n3cc(C)c(=O)[nH]c3=O)O[C@H]2CO)nn1` yielded an IC50 (A549) of 35 µM, an IC50 (DU-145) of 13.8 µM and an IC50 (MDA-MB-231) of 38 µM. It also gave an IC50 (SiHa) of 41.7 µM, an IC50 (U-87 MG) of over 150 µM and an IC50 (PC-3) of 18.9 µM. It also gave an IC50 (HT-29) of 55.6 µM, an IC50 (L132) of 115 µM and an IC50 [2] of 8.34 µM. For the same compound, the IC50 [3] was 9.12 µM.

`C/C(=C\CC/C(C)=C/CC[C@@H]1[C@@]2(C)CCC(=O)C(C)(C)[C@H]2CC[C@@]1(C)O)CC/C=C(\C)C(=O)OCc1cn(-c2ccc(Cl)cc2)nn1` gave an IC50 (A549) of over 150 µM, an IC50 (DU-145) of over 150 µM and an IC50 (L132) of over 150 µM. For the same compound, the IC50 [2] was 9.12 µM and the IC50 [3] was 66.6 µM.
